Reference: patent publication US4257941A, “Polycyclic nitrogen-containing compounds” (BASF Aktiengesellschaft, priority 1976, dated 1981)

Tests used:
Hordeum vulgare = assay: Growth height of young cereal plants (Example 11, Table A); format: in vivo; settings: soil treatment
From the text: (§1) The vessels used for the experiments were plastic pots having a volume of 1,130 cm^3 (Table A) or paraffined paper cups having a volume of 170 cm^3 (Table B). The pots and cups were filled with a sandy loam. The seeds of the test plants-separated by species-were sown shallow. Preemergence treatment (soil treatment) was effected immediately after sowing and before germination of the seeds. Seeds lying on the surface came into contact with the active ingredients. Postemergence treatment (leaf treatment) took place at an average growth height of the plants (depending on the rate of growth) of from 6 to 10 cm. The substances were suspended, emulsified or dissolved in water as diluent and applied by means of fine nozzles. The vessels were kept in the greenhouse in a temperature range of 12° C. to 25° C., and were regularly sprinkler irrigated for the duration of the experiment. The observation period was 6 to 8 weeks.

Triticum aestivum = assay: as above; format: in vivo
From the text: as §1

Arachis hypogaea = assay: Growth-regulating action, postemergence, greenhouse (Example 35, Table 1); format: in vivo; settings: for growth height relative: control 100
From the text: as §1
(§2) Further experiments were carried out in the greenhouse under the condition described in Example 11. […] As the plants which were examined liked the warmth (Eupghorbia geniculate, Arachis hypogaea, Cynodon dactylon), they were kept at from 20°-30° C. Cynodon dactylon from seed was cut once and the young growth treated postemergence.

Cynodon dactylon = assay: as above; format: in vivo; settings: for growth height relative: control 100
From the text: as §1, §2

soybeans = assay: Soybeans in a vegetation experiment in sandy loam (Example 19); format: in vivo, soybean (Gieso variety); settings: for Growth height: soil, 4 weeks; for response vs control in vivo at 3000 g/ha / response vs control in vivo at 6000 g/ha: Glycine max, 672 h, control 100, read-out: Growth height relative
Method: Soybean plants of the Gieso variety were grown in a neutral sandy loam. Fertilization took place at the time of sowing, with 0.5 g N as ammonium nitrate and 1.0 g P2 O5 as secondary potassium phosphate. […]
After 4 weeks, the treated plants were much shorter than the control, and looked more compact as a result of the different angle of the leaves. The prior art compound used for comparison purposes was 2,3,5-triiodobenzoic acid (T; U.S. Pat. No. 2,978,838).

| SMILES | Growth height (Arachis hypogaea; 0.5 kg/ha) | growth height relative (Arachis hypogaea; 0.5 kg/ha) | Growth height (Arachis hypogaea; 1.0 kg/ha) | growth height relative (Arachis hypogaea; 1.0 kg/ha) | Growth height (Arachis hypogaea; 2.0 kg/ha) | growth height relative (Arachis hypogaea; 2.0 kg/ha) | Growth height (Cynodon dactylon; 0.5 kg/ha) | growth height relative (Cynodon dactylon; 0.5 kg/ha) | Growth height (Cynodon dactylon; 1.0 kg/ha) | growth height relative (Cynodon dactylon; 1.0 kg/ha) | Growth height (Cynodon dactylon; 2.0 kg/ha) | growth height relative (Cynodon dactylon; 2.0 kg/ha) | Growth height (soybeans; 3.0 kg/ha) | Growth height (soybeans; 6.0 kg/ha) | response vs control in vivo at 3000 g/ha (soybeans; 3.0 kg/ha) | response vs control in vivo at 6000 g/ha (soybeans; 6.0 kg/ha) | also measured |
| --- | --- | --- | --- | --- | --- | --- | --- | --- | --- | --- | --- | --- | --- | --- | --- | --- | --- |
| Clc1ccc(N2N=NC3C4CC(C5N=NC45)C32)c(Cl)c1 (centres unmarked) |  |  |  |  |  |  |  |  |  |  |  |  |  |  |  |  | Growth height (Hordeum vulgare; 0.5 kg/ha): 40 cm; Growth height (Hordeum vulgare; 1.0 kg/ha): 38 cm; Growth height (Hordeum vulgare; 2.0 kg/ha): 53 cm; Growth height (Triticum aestivum; leaf treatment, 0.5 kg/ha): 40 cm; Growth height (Triticum aestivum; leaf treatment, 1.0 kg/ha): 34 cm; Growth height (Triticum aestivum; leaf treatment, 2.0 kg/ha): 35 cm; Growth height (Triticum aestivum; soil treatment, 0.5 kg/ha): 25 cm; Growth height (Triticum aestivum; soil treatment, 1.0 kg/ha): 25 cm; Growth height (Triticum aestivum; soil treatment, 2.0 kg/ha): 20 cm |
| Clc1ccc(CN2N=NC3C4CC(C5N=NC45)C32)cc1 (centres unmarked) |  |  |  |  |  |  |  |  |  |  |  |  |  |  |  |  | Growth height (Hordeum vulgare; 0.5 kg/ha): 48 cm; Growth height (Hordeum vulgare; 1.0 kg/ha): 44 cm; Growth height (Hordeum vulgare; 2.0 kg/ha): 41 cm; Growth height (Triticum aestivum; leaf treatment, 0.5 kg/ha): 40 cm; Growth height (Triticum aestivum; leaf treatment, 1.0 kg/ha): 39 cm; Growth height (Triticum aestivum; leaf treatment, 2.0 kg/ha): 40 cm; Growth height (Triticum aestivum; soil treatment, 0.5 kg/ha): 40 cm; Growth height (Triticum aestivum; soil treatment, 1.0 kg/ha): 40 cm; Growth height (Triticum aestivum; soil treatment, 2.0 kg/ha): 30 cm |
| c1cc2sncc2cc1N1C2C3CC(C4N=NC34)C21 (centres unmarked) | 13 cm | 81 | 12 cm | 75 | 9 cm | 56 | 4 cm | 36 | 4 cm | 36 | 4 cm | 36 |  |  |  |  |  |
| Clc1ccc(N2C3C4CC(C5N=NC45)C32)cc1Cl (centres unmarked) | 14 cm | 87 | 14 cm | 87 | 10 cm | 62 | 7 cm | 64 | 6 cm | 54 | 6 cm | 54 |  |  |  |  |  |
| c1csc(N2C3C4CC(C5N=NC45)C32)n1 (centres unmarked) |  |  |  |  |  |  | 8 cm | 73 | 7 cm | 64 | 6 cm | 54 |  |  |  |  |  |
| FC(F)(F)c1ccc(Cl)c(N2N=NC3C4CC(C5N=NC45)C32)c1 (centres unmarked) [drawing 396] |  |  |  |  |  |  |  |  |  |  |  |  | 17.5 cm | 13.5 cm | 76.1% | 58.7% |  |
| Brc1ccc(N2N=NC3C4CC(C5N=NC45)C32)cc1 (centres unmarked) [drawing 397] |  |  |  |  |  |  |  |  |  |  |  |  | 14.0 cm | 14.0 cm | 60.9% | 60.9% |  |
| Brc1ccccc1N1N=NC2C3CC(C4N=NC34)C21 (centres unmarked) [drawing 398] |  |  |  |  |  |  |  |  |  |  |  |  | 21.0 cm | 17.0 cm | 91.3% | 73.9% |  |
| Brc1cccc(N2N=NC3C4CC(C5N=NC45)C32)c1 (centres unmarked) [drawing 399] |  |  |  |  |  |  |  |  |  |  |  |  | 17.0 cm | 16.0 cm | 73.9% | 69.6% |  |
| FC(F)(F)c1cccc(N2C3C4CC(C5N=NC45)C32)c1 (centres unmarked) [drawing 434] | 8 cm | 50 | 7.5 cm | 47 | 5 cm | 31 | 4 cm | 36 | 4 cm | 36 | 3 cm | 27 |  |  |  |  | Growth height (Arachis hypogaea; 0.25 kg/ha): 8 cm; growth height relative (Arachis hypogaea; 0.25 kg/ha): 50 |
| CN(C)NC(=O)CCC(=O)O [drawing 437, reference compound] | 8 cm | 50 | 7 cm | 44 | 7 cm | 44 | 12 cm | 109 | 12 cm | 109 | 9 cm | 82 |  |  |  |  | Growth height (Arachis hypogaea; 0.25 kg/ha): 9 cm; growth height relative (Arachis hypogaea; 0.25 kg/ha): 56 |
